Reference: patent US8168667B2 (Galapagos NV, priority 2006, dated 2012)
Read-outs that look alike come from different tables or passages of the source.

Target: T1, human androgen receptor (hAR) (Homo sapiens, UniProt P10275)
T1 sequence (P10275 1-920): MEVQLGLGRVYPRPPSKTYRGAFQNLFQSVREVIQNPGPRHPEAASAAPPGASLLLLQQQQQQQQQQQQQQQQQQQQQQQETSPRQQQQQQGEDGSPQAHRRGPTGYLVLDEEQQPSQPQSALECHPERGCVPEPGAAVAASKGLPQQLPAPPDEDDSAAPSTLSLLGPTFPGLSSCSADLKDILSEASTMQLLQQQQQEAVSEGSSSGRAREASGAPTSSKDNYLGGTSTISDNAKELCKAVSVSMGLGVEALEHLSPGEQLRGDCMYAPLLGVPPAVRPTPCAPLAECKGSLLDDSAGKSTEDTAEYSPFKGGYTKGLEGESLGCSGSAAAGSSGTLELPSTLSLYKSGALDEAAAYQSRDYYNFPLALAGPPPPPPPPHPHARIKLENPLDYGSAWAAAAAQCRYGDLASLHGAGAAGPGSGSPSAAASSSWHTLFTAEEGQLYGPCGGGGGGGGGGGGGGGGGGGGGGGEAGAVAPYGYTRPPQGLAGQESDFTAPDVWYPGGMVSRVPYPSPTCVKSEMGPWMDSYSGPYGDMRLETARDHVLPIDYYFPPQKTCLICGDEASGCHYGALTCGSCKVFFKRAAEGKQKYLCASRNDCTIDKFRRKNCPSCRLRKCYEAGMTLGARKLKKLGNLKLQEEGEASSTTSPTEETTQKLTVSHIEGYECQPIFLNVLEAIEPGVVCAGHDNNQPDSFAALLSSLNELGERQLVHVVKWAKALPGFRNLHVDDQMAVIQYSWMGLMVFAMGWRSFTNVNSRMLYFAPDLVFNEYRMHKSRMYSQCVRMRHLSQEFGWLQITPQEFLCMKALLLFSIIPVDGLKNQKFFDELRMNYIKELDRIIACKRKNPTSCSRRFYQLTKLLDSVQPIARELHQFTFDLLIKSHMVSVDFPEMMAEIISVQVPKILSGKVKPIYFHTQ
Experiment: Functional response test: hAR transactivation (luciferase reporter) in HALP2 cells
Assay type: cell-based
Conditions: for EC50: agonism, HALP2 cells (HeLa, hAR + ARE-luciferase), 20 hours at 37° C.
Text: This test constitutes a method of identifying pure or partial agonists which mimic the effects of natural hormones, such as DHT (dihydrotestosterone) in the present case or, on the other hand, antagonists which inhibit them.
For this transactivation test, plasmids encoding a reporter gene and the human androgen receptor (hAR) are introduced together by transfection into the HeLa cell line. The reporter plasmid contains luciferase cDNA under the control of the AREs contained in the promoter sequences of the probasin gene (3xpbAREminicoll-luciferase/pGL3-puro). The expression of the reporter gene constitutes an indication of the transcriptional activity of hAR. It also encodes a protein allowing the cells expressing it to resist a treatment with puromycin. The plasmid encoding hAR contains the cDNA of hAR under the control of the Cytomegalovirus (CMV) promoter. It also encodes a protein allowing the cells expressing it to resist a treatment with neomycin. The treatment of cells with increasing amounts of potentially agonistic compounds will increase the expression of the reporter gene. To detect antagonists, on the other hand, increasing doses of test compounds are tested in the presence of […] of DHT. The expression of the reporter gene, which is constant for each dose of DHT, decreases when the concentration of the test compounds increases.
For this test, HeLa cells were obtained from the American Type Culture Collection (Rockville, Md.) and cultivated in DMEM medium containing 4.5 g/l of glucose, supplemented with Glutamax and with nonessential amino-acids and with 10% of foetal calf serum (SVF; Dominique Dutscher).
On the day before transfection, a million cells were seeded in DMEM medium without phenol red, supplemented with Glutamax and with desteroided SVF (5%) in Petri dishes. The cells were transfected with 4 μg of the puromycin resistance plasmids pcDNA3-hAR and 3xpbAREminicoll-luciferase/pGL3 using the reagent “Lipofectamine plus” (Invitrogen), following the supplier's recommendations. The day after transfection, the cells were seeded to different cell densities (10,000 to 100,000 cellules per Petri dish). Two days after transfection, the transfected cells were selected in DMEM medium without phenol red, supplemented with Glutamax and with desteroided SVF (5%) containing 400 μg/mL of G418 (Invitrogen) and 150 ng/mL of puromycin (Sigma). The culture medium was renewed weekly until resistant clones appeared. The resistant clones were removed and amplified before being tested for their functional response. […]
The functional response test was conducted on 96-well plates. The HALP2 cells were seeded (30,000 cells per well) 24 hours before the phase of stimulation in DMEM medium containing 4.5 g/L of glucose, supplemented with Glutamax and nonessential amino-acids, and with desteroided SVF (5%).
On the day of stimulation, the seeding medium was replaced by DMEM medium without phenol red, supplemented with Glutamax and with desteroided SVF (5%). […] The cells were placed in contact with the compounds for 20 hours at 37° C.

[1] = antagonism, concentration which increases the EC50 of the DHT by a factor of 2, Schild regression, HALP2 cells

EC50 [nM]	KSchild (nM) potency [1] [nM]	SMILES	KSchild (nM) potency [nM]
60	48.99	CN1C(=O)N(c2ccc(F)c(C(F)(F)F)c2)C(=O)C1c1ccc(O)cc1 (stereo not drawn) [Example 48]	
69.3	42.43	CN1C(=O)N(c2ccc(F)c(Cl)c2)C(=O)C1c1ccc(O)cc1 (stereo not drawn) [Example 49]	
15	15	O=C1C(c2ccc(O)cc2)N(Cc2ccsc2)C(=O)N1c1ccc(F)c(Cl)c1 (stereo not drawn) [Example 51]	
54.8	34.64	CCCN1C(=O)N(c2ccc(Cl)c(Cl)c2)C(=O)C1c1ccc(O)cc1 (stereo not drawn) [Example 55]	
34.6	34.64	CCCN1C(=O)N(c2ccc(F)c(F)c2)C(=O)C1c1ccc(O)cc1 (stereo not drawn) [Example 56]	
69.3	69.28	CCCN1C(=O)N(c2cccc(C(F)(F)F)c2)C(=O)C1c1ccc(O)cc1 (stereo not drawn) [Example 59]	
34.6	34.64	C=CCN1C(=O)N(c2ccc(Cl)c(C(F)(F)F)c2)C(=O)C1c1ccc(O)cc1 (stereo not drawn) [Example 61]	
34.6	34.64	C=CCN1C(=O)N(c2ccc(F)c(C(F)(F)F)c2)C(=O)C1c1ccc(O)cc1 (stereo not drawn) [Example 62]	
69.3	69.28	C=CCN1C(=O)N(c2ccc(F)c(Cl)c2)C(=O)C1c1ccc(O)cc1 (stereo not drawn) [Example 63]	
26.2	26.21	C=CCN1C(=O)N(c2cccc(C(F)(F)F)c2)C(=O)C1c1ccc(O)cc1 (stereo not drawn) [Example 64]	
24.5	21.21	C#CCN1C(=O)N(c2ccc(Cl)c(Cl)c2)C(=O)C1c1ccc(O)cc1 (stereo not drawn) [Example 66]	
49	48.99	C#CCN1C(=O)N(c2ccc(F)c(F)c2)C(=O)C1c1ccc(O)cc1 (stereo not drawn) [Example 67]	
42.4	42.43	C#CCN1C(=O)N(c2ccc(F)c(C(F)(F)F)c2)C(=O)C1c1ccc(O)cc1 (stereo not drawn) [Example 69]	
20	20	C#CCN1C(=O)N(c2ccc(F)c(Cl)c2)C(=O)C1c1ccc(O)cc1 (stereo not drawn) [Example 70]	
42.4	42.43	C#CCN1C(=O)N(c2cccc(C(F)(F)F)c2)C(=O)C1c1ccc(O)cc1 (stereo not drawn) [Example 72]	

The remaining lines, values behind:

SMILES	EC50 [nM]	KSchild (nM) potency [1] [nM]	KSchild (nM) potency [nM]
CN1C(=O)N(c2ccc(C#N)c3c2CCCC3)C(=O)C1(C)c1ccc(O)cc1 (stereo not drawn) [Example 34, 8-[3,4-dimethyl-2,5-dioxo-4-(4-hydroxyphenyl)imidazolidin-1-yl]-1,2,3,4-tetrahydro-5-naphthonitrile]			3.3
CN1C(=O)N(c2ccc(C#N)c3c2OCCO3)C(=O)C1(C)c1ccc(O)cc1 (stereo not drawn) [Example 35, 4-[3,4-dimethyl-2,5-dioxo-4-(4-hydroxyphenyl)imidazolidin-1-yl]-2,3-(1,2-ethylenedioxy)-benzonitrile]			36.34
Cc1cc(C#N)ccc1N1C(=O)N(C)C(C)(c2ccc(O)cc2)C1=O (stereo not drawn) [Example 36, 4-[3,4-dimethyl-2,5-dioxo-4-(4-hydroxyphenyl)imidazolidin-1-yl]-3-methylbenzonitrile]			69.28
CCc1cc(C#N)ccc1N1C(=O)N(C)C(C)(c2ccc(O)cc2)C1=O (stereo not drawn) [Example 37, 4-[3,4-dimethyl-2,5-dioxo-4-(4-hydroxyphenyl)imidazolidin-1-yl]-3-ethylbenzonitrile]			24.49
Cc1c(N2C(=O)N(C)C(C)(c3ccc(O)cc3)C2=O)ccc(C#N)c1C(F)(F)F (stereo not drawn) [Example 38, 4-[3,4-dimethyl-2,5-dioxo-4-(4-hydroxyphenyl)imidazolidin-1-yl]-3-methyl-2-trifluoromethylbenzonitrile]			3
C=CCN1C(=S)N(c2ccc(Cl)c(Cl)c2)C(=O)C1(C)c1ccc(O)cc1 (stereo not drawn) [Example 40, 1-(3,4-dichlorophenyl)-4-(4-hydroxyphenyl)-4-methyl-3-(2-propenyl)-2-thioxoimidazolidin-5-one]	3.46	1.41	
C#CCN1C(=S)N(c2ccc(Cl)c(Cl)c2)C(=O)C1(C)c1ccc(O)cc1 (stereo not drawn) [Example 41, 1-(3,4-dichlorophenyl)-4-(4-hydroxyphenyl)-4-methyl-3-(2-propynyl)-2-thioxoimidazolidin-5-one]	25.3	15.49	
CC1(c2ccc(O)cc2)C(=O)N(c2ccc(Cl)c(Cl)c2)C(=S)N1CCC#N (stereo not drawn) [Example 42, 3-[1-(3,4-dichlorophenyl)-4-(4-hydroxyphenyl)-4-methyl-5-oxo-2-thioxoimidazolidin-3-yl]-propionitrile]	8	4.9	
CN1C(=S)N(c2ccc(C#N)c(C(F)(F)F)c2)C(=O)C1(C)c1ccc(O)cc1 (stereo not drawn) [Example 44, 4-[3,4-dimethyl-4-(4-hydroxyphenyl)-5-oxo-2-thioxoimidazolidin-1-yl]-2-trifluoromethylbenzonitrile]			4
CN1C(=O)N(c2ccc([N+](=O)[O-])c(C(F)(F)F)c2)C(=O)C1c1ccc(O)cc1 (stereo not drawn) [Example 45]			100
CN1C(=O)N(c2ccc(F)c(F)c2)C(=O)C1c1ccc(O)cc1 (stereo not drawn) [Example 46]	77.5	77.46	
CN1C(=O)N(c2ccc(Cl)c(C(F)(F)F)c2)C(=O)C1c1ccc(O)cc1 (stereo not drawn) [Example 47]			48.99
CN1C(=O)N(c2ccc([N+](=O)[O-])cc2)C(=O)C1c1ccc(O)cc1 (stereo not drawn) [Example 50]			9.9
O=C1C(c2ccc(O)cc2)N(Cc2ccsc2)C(=O)N1c1ccc([N+](=O)[O-])cc1 (stereo not drawn) [Example 53]			9.74
CCCN1C(=O)N(c2ccc([N+](=O)[O-])c(C(F)(F)F)c2)C(=O)C1c1ccc(O)cc1 (stereo not drawn) [Example 54]		200	
CCCN1C(=O)N(c2ccc(Cl)c(C(F)(F)F)c2)C(=O)C1c1ccc(O)cc1 (stereo not drawn) [Example 57]			34.64
CCCN1C(=O)N(c2ccc(C#N)c(C(F)(F)F)c2)C(=O)C1c1ccc(O)cc1 (stereo not drawn) [Example 60]			21.21
C=CCN1C(=O)N(c2ccc([N+](=O)[O-])cc2)C(=O)C1c1ccc(O)cc1 (stereo not drawn) [Example 65]			5.43
C#CCN1C(=O)N(c2ccc(Cl)c(C(F)(F)F)c2)C(=O)C1c1ccc(O)cc1 (stereo not drawn) [Example 68]			24.49
C#CCN1C(=O)N(c2ccc([N+](=O)[O-])c(C(F)(F)F)c2)C(=O)C1c1ccc(O)cc1 (stereo not drawn) [Example 71]			300
C#CCN1C(=O)N(c2ccc([N+](=O)[O-])cc2)C(=O)C1c1ccc(O)cc1 (stereo not drawn) [Example 73]			13.77
CCOC(=O)CCN1C(=O)N(c2ccc(C#N)c(C(F)(F)F)c2)C(=O)C1c1ccc(O)cc1 (stereo not drawn) [Example 74]			17.32
CCOC(=O)CCN1C(=O)N(c2ccc([N+](=O)[O-])c(C(F)(F)F)c2)C(=O)C1c1ccc(O)cc1 (stereo not drawn) [Example 75]			600
